Data: the NIST ThermoML archive (doi:10.1021/acs.jced.8b00975)
± gives the expanded uncertainty stated by the source.

Experiment: xn = mol fraction of the nth substance listed
Conditions: 293.15 K, Liquid, Vibrating tube method

C=C(C)C(=O)OCCN(C)C [2-(dimethylamino)ethyl methylpropenoate] + CO
mass density [kg/m3]
Conditions | 100 kPa | 5000 kPa | 10000 kPa | 15000 kPa | 20000 kPa | 25000 kPa
x1 = 0.0227 | 806.56 ± 0.51 | 811.24 ± 0.52 | 815.62 ± 0.53 | 819.73 ± 0.54 | 823.64 ± 0.55 | 827.39 ± 0.56
x1 = 0.0807 | 837.79 ± 0.51 | 842.2 ± 0.52 | 846.3 ± 0.52 | 850.16 ± 0.53 | 853.82 ± 0.54 | 857.37 ± 0.54
x1 = 0.1196 | 853.33 ± 0.51 | 857.5 ± 0.51 | 861.44 ± 0.52 | 865.18 ± 0.52 | 868.77 ± 0.53 | 872.24 ± 0.54
x1 = 0.2003 | 877.11 ± 0.51 | 881.14 ± 0.51 | 884.9 ± 0.52 | 888.45 ± 0.52 | 891.85 ± 0.53 | 895.18 ± 0.53
x1 = 0.3189 | 898.63 ± 0.51 | 902.57 ± 0.51 | 906.24 ± 0.52 | 909.71 ± 0.52 | 913.03 ± 0.52 | 916.26 ± 0.53
x1 = 0.4003 | 908.22 ± 0.51 | 912.08 ± 0.51 | 915.72 ± 0.52 | 919.18 ± 0.52 | 922.49 ± 0.52 | 925.73 ± 0.53
x1 = 0.4502 | 912.84 ± 0.51 | 916.76 ± 0.51 | 920.42 ± 0.52 | 923.87 ± 0.52 | 927.16 ± 0.52 | 930.33 ± 0.53
x1 = 0.4914 | 916.03 ± 0.51 | 919.88 ± 0.51 | 923.47 ± 0.52 | 926.87 ± 0.52 | 930.13 ± 0.52 | 933.31 ± 0.53
x1 = 0.5451 | 919.46 ± 0.51 | 923.35 ± 0.52 | 926.95 ± 0.52 | 930.34 ± 0.52 | 933.58 ± 0.52 | 936.74 ± 0.53
x1 = 0.6446 | 924.39 ± 0.52 | 928.12 ± 0.52 | 931.65 ± 0.52 | 935.02 ± 0.53 | 938.27 ± 0.53 | 941.45 ± 0.53
x1 = 0.6899 | 926.07 ± 0.52 | 929.92 ± 0.52 | 933.48 ± 0.52 | 936.82 ± 0.53 | 940.01 ± 0.53 | 943.12 ± 0.53
x1 = 0.8265 | 930.1 ± 0.53 | 933.94 ± 0.53 | 937.53 ± 0.53 | 940.91 ± 0.54 | 944.15 ± 0.54 | 947.29 ± 0.54
x1 = 0.8957 | 931.56 ± 0.53 | 935.27 ± 0.54 | 938.82 ± 0.54 | 942.24 ± 0.54 | 945.55 ± 0.55 | 948.77 ± 0.55
x1 = 0.9213 | 931.89 ± 0.53 | 935.76 ± 0.54 | 939.37 ± 0.54 | 942.76 ± 0.55 | 946.01 ± 0.55 | 949.17 ± 0.55
x1 = 0.977 | 932.63 ± 0.54 | 936.53 ± 0.54 | 940.13 ± 0.55 | 943.52 ± 0.55 | 946.76 ± 0.55 | 949.92 ± 0.56
